Test results: article PMC5923171, “Novel Zinc-Attenuating Compounds as Potent Broad-Spectrum Antifungal Agents with In Vitro and In Vivo Efficacy” (Antimicrobial Agents and Chemotherapy, 2018)
Values after ≈ are worked out from the molar mass of the structure shown.

What was measured:
C. albicans BWP17 = test: Zinbo-5 assay (intracellular zinc); assay type: cell-based, Candida albicans; conditions: 9 μg/ml ZAC989, 7 μg/ml ZAC307 (25 μM), 15 μg/ml EDTA, 1.3 μg/ml TPEN; 1, 8 or 24 h
Method: C. albicans BWP17 was grown overnight in YPD medium at 30°C and 150 rpm. The cells were pelleted, washed in PBS buffer (D8537; Sigma) 3 times, and resuspended to an OD600 of 2.0. Two microliters of compound in DMSO was mixed with 100 μl of cell suspension and incubated statically for 1, 8, or 24 h at 30°C in a 96-well black plate. Thirty minutes before the end of the incubation period, 100 μl of 10 μM Zinbo-5 (sc-222425; Santa Cruz Biotechnology) in PBS buffer was added. […] The plate was then read on a plate reader (FLUOstar Optima; BMG Lab Technologies) with excitation at 355 nm and emission at 485 nm. The decrease in Zinbo-5 fluorescence was calculated relative to the untreated DMSO control.

ZafA target genes = test: RT-qPCR of ZafA target genes and genes not regulated by ZafA; assay type: cell-based, Aspergillus fumigatus; conditions: zinc-limiting conditions, 2 h; for expression of the ZafA target genes: 21 μg/ml ZAC307, 27 μg/ml ZAC989, 146 μg/ml EDTA, 10.6 μg/ml TPEN; for expression levels of the genes not regulated by ZafA: 21 μg/ml ZAC307, 27 μg/ml ZAC989
Method: A total of 1.5 × 10^6 conidia of the wild-type strain (AF14) were inoculated into 20 ml of 0.7× sRPMI, 0.05% Tween 20, and 1.2% ethanol dispensed into 100-ml culture flasks pretreated with an overnight wash in 2 mM EDTA (pH 8.0) to minimize the presence of metal traces, followed by a thorough washing with ultrapure Milli-Q water. The flasks were subsequently sterilized in an oven at 180°C. The cultures were incubated for 20 h at 37°C and 200 rpm before the following were added: (i) pure ethanol to a final concentration of 1.2% (vol/vol) (as a reference for the transcription profiles of all genes under zinc-limiting conditions), (ii) 1.2% ethanol plus a solution of ZnSO4 to a final concentration 20 μM zinc (as a reference for the transcription profiles of all genes under zinc-replete conditions following the zinc shift), (iii) 1.2% ethanol plus a solution of EDTA to a final concentration of 500 μM, (iv) 1.2% ethanol plus a solution of TPEN to a final concentration of 10.6 μg/ml, and (v) a 5 mM solution of each test compound (ZAC307 or ZAC989) dissolved in 80% ethanol to a final concentration of 75 μM and 1.2% ethanol (which correspond to 21 μg/ml and 27 μg/ml, respectively). After compound addition, cultures were incubated for 2 h at 37°C and 200 rpm and mycelia were harvested by filtration through filter paper, washed twice with sterile waterm and snap-frozen in liquid nitrogen. After grinding of the mycelia in the presence of liquid nitrogen, total RNA was extracted using an RNeasy plant minikit (74904; Qiagen) according to the manufacturer's instructions. RNA was eluted in 50 μl of RNase-free water. RNA integrity was verified on 0.8% agarose gels stained with ethidium bromide. RNA was stored at −80°C until use.
Total RNA concentration and quality were determined by UV spectrometry (NanoDrop ND1000 spectrophotometer; Thermo Fisher Scientific), and all samples were brought to a final concentration of 150 ng/μl. Total RNA (1.5 μg) was treated with RQ1 DNase I (M610; Promega) and subsequently assessed by conventional PCR for the complete absence of genomic DNA (gDNA). Subsequently, 1 μg of DNase-treated RNA was reversed transcribed using SuperScript II reverse transcriptase (18064-014; Invitrogen, Thermo Fisher Scientific), with random hexamers (11034731001; Roche Diagnostics) as primers. Prior to qPCRs, cDNA samples were diluted 1:3 in water, except in the case of reactions against the 18S rRNA, for which samples were diluted 1:1,200 in water. qPCRs were performed on a Bio-Rad CFX96 instrument. A typical qPCR mixture (10 μl) contained 13.5 ng of cDNA (32 pg when the qPCR was for 18S rRNA), a specific pair of primers (150 nM final concentration), and the SYBR premix Ex Taq (RR420A; TaKaRa). For all qPCRs, 40 cycles were performed using the following cycling conditions: denaturation at 95°C for 10 s, annealing at 59°C for 20 s, and extension at 72°C for 20 s. The relative expression ratio (rER) was calculated using the threshold cycle (2^−ΔΔCT) method ([42]) using the expression level of the 18S rRNA as an internal reference.

[1] = Human hepatocyte (HepG2) proliferation assay; assay type: cell-based; conditions: human, HepG2 cells, XTT; for EC50 at 24 h: 24 h exposure; for EC50 at 72 h: 72 h exposure
Method: In each well of a 96-well tissue culture plate (GR-655180; Grenier), 10,000 human hepatocytes (HepG2) (85011430; […] Sigma]) supplemented with 2 mM L-[…]-020-1B; Biological Industries), 1% nonessential amino acids (XC-[…]/100; Biosera), and 10% fetal bovine serum (BI-04-007-1A; Biological Industries), and plates were incubated overnight at 37°C and 5% CO2. […] The plate was incubated for a further 24 h or 72 h at 37°C and 5% CO2. The medium was then replaced with 100 μl of freshly prepared 2,3-bis-(2-methoxy-4-nitro-5-sulfophenyl)-2H-tetrazolium-5-carboxanilide salt (XTT) sodium salt solution (0.5 mg/ml of XTT; […]; Sigma) in RPMI 1640 ([…]; Sigma-Aldrich) with 3.83 μg/ml of phenazine methosulfate ([…]; Sigma-Aldrich) and incubated 2 to 3 h at 37°C and 5% CO2 ([43]). The color reaction was measured on Victor X5 plate reader (Perkin-Elmer) at OD450, and the half-maximal effective concentration (EC50) was calculated. Tamoxifen (85256; Sigma) was used as a positive-control compound.

O=C(O)CN(CCN(CC(=O)O)CC(=O)O)CC(=O)O [EDTA]
Zinbo-5 fluorescence (C. albicans BWP17): did not reduce the Zinbo-5 fluorescence
expression of the ZafA target genes (ZafA target genes): upregulation of the most direct ZafA target genes
EC50 at 24 h [1]: > 28 µg/mL
EC50 at 72 h [1]: > 29 µg/mL

CN(C)c1cc(-n2nc(-c3ccccc3)cc2O)ncn1 [ZAC307, 2-[6-(dimethylamino)pyrimidin-4-yl]-5-phenyl-pyrazol-3-ol]
Zinbo-5 fluorescence (C. albicans BWP17): decreased the Zinbo-5 fluorescence after only 1 h of incubation
expression levels of the genes not regulated by ZafA (ZafA target genes): reduced expression levels for most of the investigated genes that were not regulated by ZafA
expression of the ZafA target genes (ZafA target genes): inhibited the expression of the ZafA target genes
EC50 at 24 h [1]: > 28 µg/mL
EC50 at 72 h [1]: 13.2 ± 0.8 µg/mL (≈ 46.9 µM)

Cc1cc(O)n(-c2cc(N3CC[C@H](Oc4cnccc4C#N)C3)ncn2)n1 [ZAC989, 3-[(3S)-1-[6-(5-hydroxy-3-methyl-pyrazol-1-yl)pyrimidin-4-yl]pyrrolidin-3-yl]oxy-pyridine-4-carbonitrile]
Zinbo-5 fluorescence (C. albicans BWP17): time-dependent decrease in Zinbo-5 fluorescence
expression levels of the genes not regulated by ZafA (ZafA target genes): did not have a noticeable effect
expression of the ZafA target genes (ZafA target genes): inhibited the expression of the ZafA target genes
EC50 at 24 h [1]: > 28 µg/mL
EC50 at 72 h [1]: 6.9 ± 0.7 µg/mL (≈ 19 µM)

c1ccc(CN(CCN(Cc2ccccn2)Cc2ccccn2)Cc2ccccn2)nc1 [TPEN, N,N,N’,N’-tetrakis(2-pyridylmethyl)-ethylenediamine]
Zinbo-5 fluorescence (C. albicans BWP17): time-dependent decrease in Zinbo-5 fluorescence
expression of the ZafA target genes (ZafA target genes): higher expression of the ZafA target genes than attained with EDTA
EC50 at 24 h [1]: 1.6 ± 0.2 µg/mL (≈ 3.77 µM)
EC50 at 72 h [1]: 1.4 ± 0.8 µg/mL (≈ 3.3 µM)
